Test results: patent US9012446B2, “Amino-oxazines and amino-dihydrothiazine compounds as beta-secretase modulators and methods of use” (Amgen Inc., priority 2010, dated 2015)
Read-outs that look alike come from different tables or passages of the source.

Key:
Aβ40 = test: In vitro BACE cell-based assay (Aβ40 sandwich ELISA, cells stably expressing APP); settings: Homo sapiens
In short: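 APP-stably-expressing cells, grown 24 h in DMEM/10% FBS, received 10-point compound doses starting at 100 μM or 10 μM (0.1% DMSO final). Secreted Aβ40 in supernatants measured by sandwich ELISA with time-resolved europium fluorescence; IC50 from percent inhibition versus concentration.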

BACE = BACE (Homo sapiens, UniProt P56817); test: In vitro enzymatic BACE FRET assay; format: biochemical; settings: average IC50, enzyme assay; read-out: BACE 1 FRET assay
In short: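 BACE (0.2 nM) preincubated 1 h with serially diluted inhibitors in 0.05 M acetate pH 4.2, 10% DMSO, 100 uM genapol. FRET peptide substrate (50 nM) added, 1 h incubation, then stopped with Tris to neutral pH. Fluorescence from cleavage read at […].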

Abeta 40 = test: In vivo inhibition of beta-secretase: Abeta 40 reduction in CSF and brain of the rat; settings: 10 mpk, after 4 hrs
In short: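 Male Sprague Dawley rats (200 g) were given test compound by oral gavage in 2% HPMC, 1% Tween80, pH 2.2, while a vehicle-only group served as control. After sacrifice, brains were homogenized in 0.2% DEA/50 mM NaCl or 0.5% TritonX-100 in Tris-buffered saline and centrifuged at 355,000 g, 4° C. for 30 minutes. Abeta40 in CSF and brain supernatants was quantified by ECL sandwich ELISA (biotinylated-4G8 capture, Fab40 detection) as percent reduction versus vehicle.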

[1] = HEK293, average IC50, read-out: HEK cell assay
[2] = Abeta 40, rat CSF, read-out: % reduction of rat CSF levels at 10 pmk
[3] = Abeta 40, rat brain, read-out: % reduction of rat brain levels at 10 mpk
[4] = HEK293, average IC50, cell assay, HEK cells

BACE, sequence (P56817 46-501, species assumed): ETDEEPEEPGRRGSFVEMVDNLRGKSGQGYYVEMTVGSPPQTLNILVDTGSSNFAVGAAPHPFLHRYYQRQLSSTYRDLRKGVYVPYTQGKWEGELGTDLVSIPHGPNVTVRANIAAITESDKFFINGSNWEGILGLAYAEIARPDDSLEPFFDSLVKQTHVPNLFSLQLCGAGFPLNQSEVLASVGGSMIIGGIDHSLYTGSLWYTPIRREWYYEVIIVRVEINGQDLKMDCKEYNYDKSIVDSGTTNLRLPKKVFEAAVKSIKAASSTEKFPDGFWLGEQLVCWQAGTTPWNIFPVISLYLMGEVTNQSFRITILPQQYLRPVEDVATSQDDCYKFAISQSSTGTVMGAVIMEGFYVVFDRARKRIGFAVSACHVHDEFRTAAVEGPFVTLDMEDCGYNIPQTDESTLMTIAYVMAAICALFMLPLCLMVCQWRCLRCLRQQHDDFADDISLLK

IC50 (Aβ40; [1]) | IC50 (BACE) | IC50 (Aβ40; [4]) | Compound | inhibition in vivo at 10 mg/kg (Abeta 40; [2]) | inhibition in vivo at 10 mg/kg (Abeta 40; [3])
2.8 nM | 0.6 nM | – | CC(C)(C)COc1cc2c(c(F)n1)Oc1ccc(-c3cccnc3F)cc1[C@@]21COCC(N)=N1 [Example 250, (5S)-3-(2,2-dimethylpropoxy)-1-fluoro-7-(2-fluoro-3-pyridinyl)-6′H-Spiro[chromeno[2,3-c]pyridine-5,3′-[1,4]oxazin]-5′-amine] | 72% | 72%
– | 0.4 nM | 2.9 nM | NC1=N[C@@]2(COC1)c1cc(-c3cccnc3F)ccc1Oc1c(F)cc(-c3ccnc(F)c3)cc12 [Example 36A, (S)-4′-fluoro-7′-(2-fluoropyridin-3-yl)-2′-(2-fluoropyridin-4-yl)-2,6-dihydrospiro[[1,4]oxazine-3,9′-xanthen]-5-amine] | 26% | 25%
0.7 nM | 0.6 nM | – | Cc1cc(-c2cc3c(c(F)n2)Oc2ccc(-c4cccnc4F)cc2[C@@]32COCC(N)=N2)ccn1 [Example 248, (S)-1-fluoro-7-(2-fluoropyridin-3-yl)-3-(2-methylpyridin-4-yl)-2′,6′-dihydrospiro[chromeno[2,3-c]pyridine-5,3′-[1,4]oxazin]-5′-amine] | 53% | 39%
– | 5.8 nM | 5 nM | CC(C)(C)C#Cc1cc2c(cn1)Oc1ccc(-c3cccnc3F)cc1[C@@]21CCOC(N)=N1 [Example 154, (S)-3-(3,3-dimethylbut-1-ynyl)-7-(2-fluoropyridin-3-yl)-5′,6′-dihydrospiro[chromeno[2,3-c]pyridine-5,4′-[1,3]oxazin]-2′-amine] | 57% | 37%
